For four compounds, remaining binding results are on record in PMC10004634 (PLOS ONE, 2023).

Among the targets are FRK (Homo sapiens, UniProt P42685); BRAF (Homo sapiens, UniProt P15056); AKT3 (Homo sapiens, UniProt Q9Y243); BRAF(V600E) (Homo sapiens, UniProt P15056, V600E); CLK3 (Homo sapiens, UniProt P49761); BLK (Homo sapiens, UniProt P51451); MAP4K4 (Homo sapiens, UniProt O95819); STK16 (Homo sapiens, UniProt O75716); PDGFRA (Homo sapiens, UniProt P16234).
Assay in all cases: biochemical
Design in all cases: KINOMEscan scanMAX competition binding, DNA-tagged kinases, qPCR read-out, percent control at 300 nM
(In general: In qPCR the cycle at which signal appears reflects the starting amount.)

The target in the next assay is T1, BRK (Homo sapiens, UniProt Q13882).
T1 construct: gene PTK6
T1 sequence (Q13882 whole entry): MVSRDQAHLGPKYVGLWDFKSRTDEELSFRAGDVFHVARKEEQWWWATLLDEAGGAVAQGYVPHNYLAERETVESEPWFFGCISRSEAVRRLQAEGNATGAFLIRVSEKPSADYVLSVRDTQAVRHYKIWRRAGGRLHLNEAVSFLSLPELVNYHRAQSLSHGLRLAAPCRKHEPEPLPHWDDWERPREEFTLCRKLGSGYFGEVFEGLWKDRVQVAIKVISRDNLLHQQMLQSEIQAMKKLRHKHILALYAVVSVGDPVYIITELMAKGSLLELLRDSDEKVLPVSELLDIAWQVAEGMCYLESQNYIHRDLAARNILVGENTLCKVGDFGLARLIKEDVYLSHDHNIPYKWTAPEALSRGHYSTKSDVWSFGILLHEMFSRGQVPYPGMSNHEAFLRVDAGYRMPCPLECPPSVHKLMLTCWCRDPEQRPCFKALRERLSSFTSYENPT

Assay [1] deals with T2, RSK4(Kin.Dom.2-C-terminal) (Homo sapiens, UniProt Q9UK32).
T2 construct: gene RPS6KA6; Kin.Dom.2-C-terminal
T2 sequence (Q9UK32 whole entry): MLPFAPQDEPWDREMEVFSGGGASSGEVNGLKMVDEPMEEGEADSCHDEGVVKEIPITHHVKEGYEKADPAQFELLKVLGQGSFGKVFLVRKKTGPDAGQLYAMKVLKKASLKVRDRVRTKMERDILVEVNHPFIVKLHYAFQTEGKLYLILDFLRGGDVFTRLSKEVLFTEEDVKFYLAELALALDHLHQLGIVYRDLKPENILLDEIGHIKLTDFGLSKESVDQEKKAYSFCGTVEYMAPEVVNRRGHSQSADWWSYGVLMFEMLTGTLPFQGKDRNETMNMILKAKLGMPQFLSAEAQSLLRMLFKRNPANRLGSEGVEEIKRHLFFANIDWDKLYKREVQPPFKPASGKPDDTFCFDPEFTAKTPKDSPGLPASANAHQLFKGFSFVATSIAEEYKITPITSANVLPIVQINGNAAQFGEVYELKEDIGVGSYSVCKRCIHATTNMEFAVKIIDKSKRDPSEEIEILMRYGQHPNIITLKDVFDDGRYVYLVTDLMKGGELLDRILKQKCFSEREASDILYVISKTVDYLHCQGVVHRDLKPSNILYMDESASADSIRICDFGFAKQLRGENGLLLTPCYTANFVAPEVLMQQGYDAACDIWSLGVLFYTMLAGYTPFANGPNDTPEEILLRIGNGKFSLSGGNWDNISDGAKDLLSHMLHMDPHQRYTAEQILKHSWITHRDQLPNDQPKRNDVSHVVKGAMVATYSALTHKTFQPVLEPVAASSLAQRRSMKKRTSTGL

The target in another assay is T3, CSNK1A1L (Homo sapiens, UniProt Q8N752).
T3 sequence (Q8N752 1-337): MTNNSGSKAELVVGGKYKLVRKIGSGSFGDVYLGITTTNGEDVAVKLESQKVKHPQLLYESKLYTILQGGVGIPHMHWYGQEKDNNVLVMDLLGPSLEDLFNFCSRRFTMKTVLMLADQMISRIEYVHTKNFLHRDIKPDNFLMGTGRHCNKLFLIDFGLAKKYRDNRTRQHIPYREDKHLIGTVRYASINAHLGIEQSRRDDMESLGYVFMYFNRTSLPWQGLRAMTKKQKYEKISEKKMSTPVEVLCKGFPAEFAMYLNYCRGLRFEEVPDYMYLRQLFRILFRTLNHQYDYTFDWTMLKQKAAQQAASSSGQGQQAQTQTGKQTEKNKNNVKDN

Another assay deals with T4, FLT3(R834Q) (Homo sapiens, UniProt P36888, R834Q).
T4 sequence (P36888 1-993 R834Q): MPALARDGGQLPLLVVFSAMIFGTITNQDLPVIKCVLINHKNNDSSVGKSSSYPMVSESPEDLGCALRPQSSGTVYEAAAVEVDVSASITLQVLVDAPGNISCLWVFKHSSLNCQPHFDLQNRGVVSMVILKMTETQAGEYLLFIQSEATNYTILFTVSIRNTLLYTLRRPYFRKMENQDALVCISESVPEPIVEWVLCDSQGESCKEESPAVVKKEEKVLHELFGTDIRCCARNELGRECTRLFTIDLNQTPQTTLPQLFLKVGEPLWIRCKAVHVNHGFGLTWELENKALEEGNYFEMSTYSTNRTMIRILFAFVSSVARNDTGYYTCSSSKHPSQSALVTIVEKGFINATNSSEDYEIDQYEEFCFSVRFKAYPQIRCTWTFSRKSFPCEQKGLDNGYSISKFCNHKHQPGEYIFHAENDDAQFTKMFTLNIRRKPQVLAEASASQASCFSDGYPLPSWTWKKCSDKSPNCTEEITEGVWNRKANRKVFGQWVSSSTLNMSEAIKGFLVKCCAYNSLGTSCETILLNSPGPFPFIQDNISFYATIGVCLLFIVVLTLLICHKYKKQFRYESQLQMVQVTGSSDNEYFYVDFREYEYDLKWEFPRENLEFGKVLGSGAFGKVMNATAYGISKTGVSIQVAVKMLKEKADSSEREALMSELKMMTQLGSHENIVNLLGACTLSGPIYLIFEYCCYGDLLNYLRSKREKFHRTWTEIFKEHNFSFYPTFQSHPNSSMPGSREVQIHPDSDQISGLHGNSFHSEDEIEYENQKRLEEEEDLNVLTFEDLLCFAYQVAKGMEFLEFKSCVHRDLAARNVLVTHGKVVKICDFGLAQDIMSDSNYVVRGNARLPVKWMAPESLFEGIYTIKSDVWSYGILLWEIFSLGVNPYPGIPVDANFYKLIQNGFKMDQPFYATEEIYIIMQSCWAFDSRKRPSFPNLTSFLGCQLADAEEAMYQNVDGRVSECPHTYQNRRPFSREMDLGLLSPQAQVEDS

The mark [2] stands for this setting: read-out: Percent control / Acalabrutinib.
Setting [3] is: read-out: Percent control / Ibrutinib.
Setting [4] is: read-out: Percent control / Tirabrutinib.
The mark [5] stands for this setting: read-out: Percent control / Zanubrutinib.

Each structure is given as a SMILES string. Like-named read-outs stand apart in the source and are kept apart here.

Chain of BRAF (P15056 whole entry): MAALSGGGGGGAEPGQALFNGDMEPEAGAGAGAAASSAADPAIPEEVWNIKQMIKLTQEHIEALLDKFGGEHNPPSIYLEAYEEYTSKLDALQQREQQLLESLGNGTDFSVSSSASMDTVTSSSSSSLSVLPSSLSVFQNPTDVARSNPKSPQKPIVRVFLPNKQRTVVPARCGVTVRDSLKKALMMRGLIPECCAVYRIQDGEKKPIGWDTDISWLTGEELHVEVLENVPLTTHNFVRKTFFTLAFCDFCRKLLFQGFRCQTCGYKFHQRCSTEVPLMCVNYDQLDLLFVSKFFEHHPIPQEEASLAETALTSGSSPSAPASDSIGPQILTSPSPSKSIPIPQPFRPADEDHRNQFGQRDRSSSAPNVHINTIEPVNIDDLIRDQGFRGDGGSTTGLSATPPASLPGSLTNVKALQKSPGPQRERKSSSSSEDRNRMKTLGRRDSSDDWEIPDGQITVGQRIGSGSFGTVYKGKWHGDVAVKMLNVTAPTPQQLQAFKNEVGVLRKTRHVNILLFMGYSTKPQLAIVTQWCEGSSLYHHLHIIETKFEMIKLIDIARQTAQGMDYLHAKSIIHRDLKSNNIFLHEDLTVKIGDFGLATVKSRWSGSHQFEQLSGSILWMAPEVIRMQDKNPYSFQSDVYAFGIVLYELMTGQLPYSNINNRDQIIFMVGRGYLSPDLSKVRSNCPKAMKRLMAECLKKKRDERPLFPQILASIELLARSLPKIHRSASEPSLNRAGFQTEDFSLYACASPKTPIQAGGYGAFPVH
Chain of AKT3 (Q9Y243 whole entry): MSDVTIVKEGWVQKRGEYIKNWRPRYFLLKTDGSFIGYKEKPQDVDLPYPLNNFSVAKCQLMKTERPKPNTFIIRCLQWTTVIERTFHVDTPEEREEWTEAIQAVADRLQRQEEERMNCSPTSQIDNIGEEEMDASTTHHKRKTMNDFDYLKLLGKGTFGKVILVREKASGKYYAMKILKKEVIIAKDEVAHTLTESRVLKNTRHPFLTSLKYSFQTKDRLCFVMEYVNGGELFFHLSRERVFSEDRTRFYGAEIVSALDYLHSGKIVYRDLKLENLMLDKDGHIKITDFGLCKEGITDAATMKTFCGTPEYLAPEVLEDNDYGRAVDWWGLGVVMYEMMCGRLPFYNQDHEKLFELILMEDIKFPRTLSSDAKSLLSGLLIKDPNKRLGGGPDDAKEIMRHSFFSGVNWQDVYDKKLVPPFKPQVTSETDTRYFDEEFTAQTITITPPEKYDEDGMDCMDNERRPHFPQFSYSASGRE
Chain of BRAF(V600E) (P15056 whole entry V600E): as the sequence (P15056 whole entry) above, with V600E counted along it
Chain of STK16 (O75716 whole entry): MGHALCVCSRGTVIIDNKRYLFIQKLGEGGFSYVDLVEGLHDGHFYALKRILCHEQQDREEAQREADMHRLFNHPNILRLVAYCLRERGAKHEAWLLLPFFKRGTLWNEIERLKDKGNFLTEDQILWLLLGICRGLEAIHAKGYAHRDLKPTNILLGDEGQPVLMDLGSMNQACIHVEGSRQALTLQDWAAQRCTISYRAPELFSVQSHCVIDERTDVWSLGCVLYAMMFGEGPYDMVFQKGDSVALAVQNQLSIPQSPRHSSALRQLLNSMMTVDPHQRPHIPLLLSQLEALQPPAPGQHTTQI
Chain of PDGFRA (P16234 whole entry): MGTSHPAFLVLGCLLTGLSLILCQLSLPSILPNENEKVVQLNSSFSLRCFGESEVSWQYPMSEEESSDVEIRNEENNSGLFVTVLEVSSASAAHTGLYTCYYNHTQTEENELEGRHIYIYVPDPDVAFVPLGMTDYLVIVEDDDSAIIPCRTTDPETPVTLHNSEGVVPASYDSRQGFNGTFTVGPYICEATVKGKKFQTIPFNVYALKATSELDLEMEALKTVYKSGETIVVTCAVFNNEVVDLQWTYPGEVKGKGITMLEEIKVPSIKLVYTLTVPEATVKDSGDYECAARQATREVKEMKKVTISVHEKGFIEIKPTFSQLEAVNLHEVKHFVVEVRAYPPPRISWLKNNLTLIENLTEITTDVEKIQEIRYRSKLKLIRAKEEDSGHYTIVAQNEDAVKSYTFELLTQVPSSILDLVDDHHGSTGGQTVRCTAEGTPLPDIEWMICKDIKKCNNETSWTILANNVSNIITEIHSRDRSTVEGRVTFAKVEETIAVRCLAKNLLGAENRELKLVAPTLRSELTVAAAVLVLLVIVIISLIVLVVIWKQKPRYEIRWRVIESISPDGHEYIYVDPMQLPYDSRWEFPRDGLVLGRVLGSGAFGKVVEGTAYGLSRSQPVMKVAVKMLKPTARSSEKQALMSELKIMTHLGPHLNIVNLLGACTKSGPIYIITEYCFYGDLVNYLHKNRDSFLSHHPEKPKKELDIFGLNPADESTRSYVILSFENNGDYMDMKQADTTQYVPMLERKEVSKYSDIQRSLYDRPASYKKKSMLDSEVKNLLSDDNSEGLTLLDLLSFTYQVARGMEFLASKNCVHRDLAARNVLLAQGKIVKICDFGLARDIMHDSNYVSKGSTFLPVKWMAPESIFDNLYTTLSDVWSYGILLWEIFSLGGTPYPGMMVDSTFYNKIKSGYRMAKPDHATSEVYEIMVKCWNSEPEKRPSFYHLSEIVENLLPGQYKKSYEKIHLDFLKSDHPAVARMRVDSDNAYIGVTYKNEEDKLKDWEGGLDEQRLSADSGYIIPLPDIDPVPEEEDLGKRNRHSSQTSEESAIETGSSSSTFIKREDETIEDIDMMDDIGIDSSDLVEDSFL
Chain of FRK (P42685 whole entry): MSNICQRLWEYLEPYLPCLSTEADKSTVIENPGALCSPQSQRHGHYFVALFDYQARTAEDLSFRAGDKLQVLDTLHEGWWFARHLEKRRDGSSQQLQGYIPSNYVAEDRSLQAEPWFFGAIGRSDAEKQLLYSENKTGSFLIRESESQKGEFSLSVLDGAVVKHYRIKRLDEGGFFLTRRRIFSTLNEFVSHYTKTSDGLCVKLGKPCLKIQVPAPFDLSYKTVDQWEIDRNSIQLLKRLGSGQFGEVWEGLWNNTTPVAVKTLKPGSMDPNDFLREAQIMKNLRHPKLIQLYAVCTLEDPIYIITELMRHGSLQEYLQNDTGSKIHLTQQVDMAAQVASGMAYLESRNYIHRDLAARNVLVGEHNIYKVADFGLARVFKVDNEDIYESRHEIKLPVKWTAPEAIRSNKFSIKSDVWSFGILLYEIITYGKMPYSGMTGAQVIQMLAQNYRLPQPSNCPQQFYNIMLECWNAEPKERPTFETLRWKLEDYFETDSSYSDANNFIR
Chain of CLK3 (P49761 whole entry): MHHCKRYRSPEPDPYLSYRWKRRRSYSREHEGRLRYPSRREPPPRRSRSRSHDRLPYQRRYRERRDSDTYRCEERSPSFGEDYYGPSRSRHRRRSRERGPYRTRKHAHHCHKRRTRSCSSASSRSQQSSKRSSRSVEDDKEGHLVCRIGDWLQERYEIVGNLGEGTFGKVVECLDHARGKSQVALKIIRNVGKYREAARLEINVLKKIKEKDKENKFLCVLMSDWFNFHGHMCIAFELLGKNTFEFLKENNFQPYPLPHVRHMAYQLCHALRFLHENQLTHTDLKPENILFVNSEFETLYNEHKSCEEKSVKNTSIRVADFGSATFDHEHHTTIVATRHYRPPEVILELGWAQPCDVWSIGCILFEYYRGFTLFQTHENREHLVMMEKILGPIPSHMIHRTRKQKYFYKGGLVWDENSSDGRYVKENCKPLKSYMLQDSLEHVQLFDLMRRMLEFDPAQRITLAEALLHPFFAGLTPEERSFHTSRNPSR

Regarding `CC#CC(=O)N1CCC[C@H]1c1nc(-c2ccc(C(=O)Nc3ccccn3)cc2)c2c(N)nccn12` [Acalabrutinib], the remaining binding at 0.3 µM worked out at 79% at FRK (setting [2]); 87% on BRK (setting [2]); 85% on BRAF (setting [2]); 95% on AKT3 (setting [2]); 95% in assay [1] (setting [2]); 84% at CSNK1A1L (setting [2]). The remaining binding at 0.3 µM at BRAF(V600E) (setting [2]) is 70%; on CLK3 (setting [2]) it was 94%; on BLK (setting [2]), 80%; on MAP4K4 (setting [2]), 92%; on STK16 (setting [2]), 86%.

In the case of `C=CC(=O)N1CCC[C@@H](n2nc(-c3ccc(Oc4ccccc4)cc3)c3c(N)ncnc32)C1` [Ibrutinib], the remaining binding at 0.3 µM came to 32% on FRK (setting [3]); 3.4% at BRK (setting [3]); 97% at BRAF (setting [3]); 96% at PDGFRA (setting [3]); 93% on CSNK1A1L (setting [3]); 98% on BRAF(V600E) (setting [3]). Further, the remaining binding at 0.3 µM on BLK (setting [3]) amounted to 0.5%; on MAP4K4 (setting [3]), 98%; at FLT3(R834Q) (setting [3]), 55%; at STK16 (setting [3]) it was 98%.

In the case of `CC#CC(=O)N1CC[C@@H](n2c(=O)n(-c3ccc(Oc4ccccc4)cc3)c3c(N)ncnc32)C1` [Tirabrutinib], the remaining binding at 0.3 µM on AKT3 (setting [4]) amounted to 83%; in assay [1] (setting [4]) it was 93%; at PDGFRA (setting [4]), 95%; on CSNK1A1L (setting [4]), 93%; at CLK3 (setting [4]) it was 82%; on BLK (setting [4]) it was 39%. In addition, the remaining binding at 0.3 µM at MAP4K4 (setting [4]) amounted to 98%; at FLT3(R834Q) (setting [4]) it was 81%; at STK16 (setting [4]), 82%.

For `C=CC(=O)N1CCC([C@@H]2CCNc3c(C(N)=O)c(-c4ccc(Oc5ccccc5)cc4)nn32)CC1` [Zanubrutinib], the remaining binding at 0.3 µM was determined as 42% at FRK (setting [5]); 35% on BRK (setting [5]); 97% on BRAF (setting [5]); 84% at AKT3 (setting [5]); 82% in [1] (setting [5]); 100% at PDGFRA (setting [5]). Also, the remaining binding at 0.3 µM came to 83% on CSNK1A1L (setting [5]); 88% at BRAF(V600E) (setting [5]); 82% on CLK3 (setting [5]); 100% on MAP4K4 (setting [5]); 93% on FLT3(R834Q) (setting [5]); 100% at STK16 (setting [5]).
